# Experiments:
# [1] = tested on: Amaranthus retroflexus; experiment: Herbicidal activity, soil surface spray, insecticide-treated stem cutting (Example 6); format: in vivo; conditions: 3 cm stem cutting treated with clothianidin, thiamethoxiam, imidacloprid, dinotefuran, nitenpyram, acetamiprid or thiacloprid, four weeks after treatment
# [2] = tested on: sugar cane; experiment: Phytotoxicity on sugar cane, soil surface spray, insecticide-treated stem cutting (Example 6)
# Excerpt: (§1) The “phytotoxicity” evaluated herein is the damage characteristic determined to be due to a treated compound, and is clearly discriminated from the damage characteristic caused by a harmful animal or plant disease.
# (§2) A 30 cm to 40 cm stem cutting of sugar cane is placed on a wet soil, and germination is stimulated. The stem cutting from which a bud has grown to about 1 cm is selected, and the length of the stem cutting is adjusted to be 3 cm so that the stem cutting has one node. Clothianidin, thiamethoxiam, imidacloprid, dinotefuran, nitenpyram, acetamiprid or thiacloprid is adhered to the stem cutting. A soil is packed into a plastic pot, and seeds of Amaranthus retroflexus are seeded thereon. The stem cutting of sugar cane treated with clothianidin, thiamethoxiam, imidacloprid, dinotefuran, nitenpyram, acetamiprid or thiacloprid is planted in the soil packed into the pot at a depth of 2 cm. […] Thereafter, the pot for a test is placed in a greenhouse.
# [3] = tested on: sugar cane; experiment: Phytotoxicity on sugar cane, spray above weed before planting, insecticide-treated stem cutting (Example 7)
# Procedure: as §1
# A soil is packed into a plastic pot, and seeds of Amaranthus retroflexus are seeded thereon. Thereafter, the pot is placed in a greenhouse, and the weed is grown.
# A 30 cm to 40 cm stem cutting of sugar cane is placed on a wet soil, and germination is stimulated. The stem cutting from which a bud has grown to about 1 cm is selected, and the length of the stem cutting is adjusted to be 3 cm so that the stem cutting has one node. Clothianidin, thiamethoxiam, imidacloprid, dinotefuran, nitenpyram, acetamiprid or thiacloprid is adhered to the stem cutting.
# (§3) The pot for a test is placed in a greenhouse.
# [4] = tested on: sugar cane; experiment: Phytotoxicity on sugar cane, soil surface spray, strobilurin-treated stem cutting (Example 8)
# Excerpt: as §1
# A 30 cm to 40 cm stem cutting of sugar cane is placed on a wet soil, and germination is stimulated. The stem cutting from which a bud has grown to about 1 cm is selected, and the length of the stem cutting is adjusted to be 3 cm so that the stem cutting has one node. Kresoxim-methyl, azoxystrobin, trifloxystrobin, fluoxastrobin, picoxystrobin, pyraclostrobin, dimoxystrobin, pyribencarb, metominostrobin, orysastrobin, enestrobin, pyraoxystrobin or pyrametostrobin is adhered to the stem cutting. A soil is packed into a plastic pot, and seeds of Amaranthus retroflexus are seeded thereon. The stem cutting of sugar cane treated with kresoxim-methyl, azoxystrobin, trifloxystrobin, fluoxastrobin, picoxystrobin, pyraclostrobin, dimoxystrobin, pyribencarb, metominostrobin, orysastrobin, enestrobin, pyraoxystrobin or pyrametostrobin is planted in the soil packed into the pot at a depth of 2 cm. […] Thereafter, the pot for a test is placed in a greenhouse.
# [5] = tested on: sugar cane; experiment: Phytotoxicity on sugar cane, soil surface spray, azole-fungicide-treated stem cutting (Example 10)
# Excerpt: as §1
# A 30 to 40 cm stem cutting of sugar cane is placed on a wet soil, and germination is stimulated. The stem cutting from which a bud has grown to about 1 cm is selected, and the length of the stem cutting is adjusted to be 3 cm so that the stem cutting has one node. Azaconazole, bitertanol, bromoconazole, cyproconazole, difenoconazole, diniconazole, epoxyconazole, fenbuconazole, fluquinconazole, flusilazole, flutriafol, hexaconazole, imibenconazole, ipconazole, metconazole, myclobutanil, penconazole, propiconazole, prothioconazole, simeconazole, tebuconazole, tetraconazole, triadimenol, triticonazole, fenarimol, nuarimol, pyrifenox, imazalil, oxpoconazole fumarate, pefurazoate, procloraz or triflumizole is adhered to the stem cutting. A soil is packed into a plastic pot, and seeds of Amaranthus retroflexus are seeded thereon. The stem cutting of sugar cane treated with azaconazole, bitertanol, bromoconazole, cyproconazole, difenoconazole, diniconazole, epoxyconazole, fenbuconazole, fluquinconazole, flusilazole, flutriafol, hexaconazole, imibenconazole, ipconazole, metconazole, myclobutanil, penconazole, propiconazole, prothioconazole, simeconazole, tebuconazole, tetraconazole, triadimenol, triticonazole, fenarimol, nuarimol, pyrifenox, imazalil, oxpoconazole fumarate, pefurazoate, procloraz or triflumizole is planted in the soil packed into the pot at a depth of 2 cm. […] Thereafter, the pot for a test is placed in a greenhouse.
# [6] = tested on: Amaranthus retroflexus; experiment: Herbicidal activity, spray above weed before planting, azole-fungicide-treated stem cutting (Example 11); format: in vivo; conditions: sprayed above weed, 3 cm stem cutting treated with azaconazole, bitertanol or another listed azole-type fungicide planted one week after treatment, four weeks after treatment
# [7] = tested on: sugar cane; experiment: Phytotoxicity on sugar cane, spray above weed before planting, azole-fungicide-treated stem cutting (Example 11)
# Procedure: as §1
# A soil is packed into a plastic pat, and seeds of Amaranthus retroflexus are seeded thereon. Thereafter, the pot is placed in a greenhouse, and the weed is grown.
# A 30 cm to 40 cm stem cutting of sugar cane is placed on a wet soil, and germination is stimulated. The stem cutting from which a bud has grown to about 1 cm is selected, and the length of the stem cutting is adjusted to be 3 cm so that the stem cutting has one node. Azaconazole, bitertanol, bromoconazole, cyproconazole, difenoconazole, diniconazole, epoxyconazole, fenbuconazole, fluquinconazole, flusilazole, flutriafol, hexaconazole, imibenconazole, ipconazole, metconazole, myclobutanil, penconazole, propiconazole, prothioconazole, simeconazole, tebuconazole, tetraconazole, triadimenol, triticonazole, fenarimol, nuarimol, pyrifenox, imazalil, oxpoconazole fumarate, pefurazoate, procloraz or triflumizole is adhered to the stem cutting.
# as §3
# [8] = tested on: Amaranthus retroflexus; experiment: Herbicidal activity, soil surface spray, metalaxyl-treated stem cutting (Example 12); format: in vivo; conditions: 3 cm stem cutting treated with metalaxyl or metalaxyl-M, four weeks after treatment
# Procedure: A soil is packed into a plastic pot. Seeds of Amaranthus retroflexus are seeded thereon.
# [9] = tested on: sugar cane; experiment: Phytotoxicity on sugar cane, soil surface spray, metalaxyl-treated stem cutting (Example 12)
# Excerpt: as §1
# as §2, with “Metalaxyl” for “Clothianidin, thiamethoxiam, imidacloprid, dinotefuran, nitenpyram, acetamiprid”, “metalaxyl-M” for “thiacloprid”, “pot. Seeds” for “pot, and seeds”, “metalaxyl” for “clothianidin, thiamethoxiam, imidacloprid, dinotefuran, nitenpyram, acetamiprid”
# [10] = Example 6, 3 cm stem cutting treated with clothianidin, thiamethoxiam, imidacloprid, dinotefuran, nitenpyram, acetamiprid or thiacloprid, soil surface spray, four weeks after treatment
# [11] = Example 7, sprayed above weed, 3 cm stem cutting treated with clothianidin, thiamethoxiam, imidacloprid, dinotefuran, nitenpyram, acetamiprid or thiacloprid planted one week after treatment, four weeks after treatment
# [12] = Example 8, 3 cm stem cutting treated with kresoxim-methyl, azoxystrobin or another listed strobilurin fungicide, soil surface spray, four weeks after treatment
# [13] = Example 10, 3 cm stem cutting treated with azaconazole, bitertanol or another listed azole-type fungicide, soil surface spray, four weeks after treatment
# [14] = Example 11, sprayed above weed, 3 cm stem cutting treated with azaconazole, bitertanol or another listed azole-type fungicide planted one week after treatment, four weeks after treatment
# [15] = Example 12, 3 cm stem cutting treated with metalaxyl or metalaxyl-M, soil surface spray, four weeks after treatment
Compound,herbicidal activity against Amaranthus retroflexus [1],phytotoxicity ([2]; in vivo),phytotoxicity ([3]; in vivo),phytotoxicity ([4]; in vivo),phytotoxicity ([5]; in vivo),herbicidal activity against Amaranthus retroflexus [6],phytotoxicity ([7]; in vivo),herbicidal activity against Amaranthus retroflexus [8],phytotoxicity ([9]; in vivo),"phytotoxicity [2, 10]","phytotoxicity [3, 11]","phytotoxicity [4, 12]","phytotoxicity [5, 13]","phytotoxicity [7, 14]","phytotoxicity [9, 15]"
CC(C)Oc1cc(-n2nc(C(C)(C)C)oc2=O)c(Cl)cc1Cl [oxadiazon],the controlling effect on a weed can be confirmed,significant phytotoxicity on sugar cane is not observed,significant phytotoxicity on sugar cane is not observed,significant phytotoxicity on sugar cane is not observed,significant phytotoxicity on sugar cane is not observed,the controlling effect on a weed can be confirmed,significant phytotoxicity on sugar cane is not observed,the controlling effect on a weed can be confirmed,significant phytotoxicity on sugar cane is not observed,,,,,,
"C#CCN1C(=O)COc2cc(F)c(N3C(=O)C4=C(CCCC4)C3=O)cc21 [Flumioxazin, flumioxazin]",the controlling effect on a weed can be confirmed,,,,,the controlling effect on a weed can be confirmed,,the controlling effect on a weed can be confirmed,,significant phytotoxicity on sugar cane is not observed,significant phytotoxicity on sugar cane is not observed,significant phytotoxicity on sugar cane is not observed,significant phytotoxicity on sugar cane is not observed,significant phytotoxicity on sugar cane is not observed,significant phytotoxicity on sugar cane is not observed
Cc1nn(-c2cc(NS(C)(=O)=O)c(Cl)cc2Cl)c(=O)n1C(F)F [sulfentrazone],the controlling effect on a weed can be confirmed,significant phytotoxicity on sugar cane is not observed,significant phytotoxicity on sugar cane is not observed,significant phytotoxicity on sugar cane is not observed,significant phytotoxicity on sugar cane is not observed,the controlling effect on a weed can be confirmed,significant phytotoxicity on sugar cane is not observed,the controlling effect on a weed can be confirmed,significant phytotoxicity on sugar cane is not observed,,,,,,
CCOc1cc(Oc2ccc(C(F)(F)F)cc2Cl)ccc1[N+](=O)[O-] [oxyfluorfen],the controlling effect on a weed can be confirmed,,,,,the controlling effect on a weed can be confirmed,,the controlling effect on a weed can be confirmed,,significant phytotoxicity on sugar cane is not observed,significant phytotoxicity on sugar cane is not observed,significant phytotoxicity on sugar cane is not observed,significant phytotoxicity on sugar cane is not observed,significant phytotoxicity on sugar cane is not observed,significant phytotoxicity on sugar cane is not observed
"CC(C)N(C)S(=O)(=O)NC(=O)c1cc(-n2c(=O)cc(C(F)(F)F)n(C)c2=O)c(F)cc1Cl [Saflufenacil, saflufenacil]",the controlling effect on a weed can be confirmed,,,,,the controlling effect on a weed can be confirmed,,the controlling effect on a weed can be confirmed,,significant phytotoxicity on sugar cane is not observed,significant phytotoxicity on sugar cane is not observed,significant phytotoxicity on sugar cane is not observed,significant phytotoxicity on sugar cane is not observed,significant phytotoxicity on sugar cane is not observed,significant phytotoxicity on sugar cane is not observed
C#CCN1C(=O)COc2cc(F)c(-n3c(=O)n(C)c(=S)n(C)c3=O)cc21 [compound of the formula (I)],the controlling effect on a weed can be confirmed,significant phytotoxicity on sugar cane is not observed,significant phytotoxicity on sugar cane is not observed,,significant phytotoxicity on sugar cane is not observed,the controlling effect on a weed can be confirmed,significant phytotoxicity on sugar cane is not observed,the controlling effect on a weed can be confirmed,significant phytotoxicity on sugar cane is not observed,,,significant phytotoxicity on sugar cane is not observed,,,
